From patent US20250066739A1, “Compositions and Methods for Improving Squamous Epithelial Organoids and Their Production” (The Trustees of Columbia University in the City of New York, priority 2022, published 2025)

Key:
[1] = system: EPC1 and EPC2 hTERT-immortalized normal esophageal keratinocytes; assay: Organoid formation by EPC1/EPC2 esophageal 3D organoids; type: cell-based
Protocol: (§1) In general, 2×10^4 cells were seeded per well to initiate PDO in 24-well plates, which were pre-warmed to 37° C. 1.4×10^5 cells were transferred into a 1.7-mL tube and centrifuged at 500×g (2,300 rpm on Eppendorf 5424R) for 3 min at room temperature to pellet cells. Cells were resuspended in 350 μL ice-cold MATRIGEL® and 50 μL of the suspension was aliquoted into each well of 24-well plate. The 24-well plate was placed in a CO2 incubator at 37° C. for 30 min to allow the MATRIGEL® to solidify.
(§2) 500 μL of a tumor-type specific organoid medium (see Example 11) was added to each well, and the organoid media was changed every 2 to 3 days. Contamination and organoid growth was monitored under a phase-contrast microscope, and organoids were allowed to grow for 10 to 14 days and then passaged or harvested. If spherical structures were observed but grew slowly, the culturing period was extended for another 7 to 14 days.
To evaluate organoid growth, 3D organoid structures were monitored during culturing, and their size was documented by a conventional phase-contrast inverted microscope or high-throughput cell imaging instruments (e.g., Celigo Image Cytometer, Nexcelom Bioscience) with the capacity of automated multi-well rapid imaging and quantitative analysis of organoid size, number, and structure. Organoids were grown in 24-well or 96-well plates as described above, and phase-contrast images were manually acquired. Using ImageJ software, the diameter of at least 5 organoids per well was measured. The Celigo Image Cytometer was also used to acquire phase-contrast images and calculate mean organoid area for all organoids imaged. Growth curves were subsequently calculated by repeating measurements every other day and plotting organoid diameter or area at each time point.
In order to improve the success rate of creating and subculturing organoids through increasing numbers of passages, alterations to existing media were explored and compared to each other and the HC media described in Driehuis et al., Cancer Discov, 2019; 9:852-71. […]

[2] = system: neoplastic PDOs; assay: Growth and formation of neoplastic PDOs; type: cell-based, human; conditions: FIG. 2
Protocol: as §1, §2
To evaluate organoid growth, 3D organoid structures were monitored during culturing, and their size was documented by a conventional phase-contrast inverted microscope or high-throughput cell imaging instruments (e.g., Celigo Image Cytometer, Nexcelom Bioscience) with the capacity of automated multi-well rapid imaging and quantitative analysis of organoid size, number, and structure. […] Using ImageJ software, the diameter of at least 5 organoids per well was measured. […]

Row | Molecule | EPC1/EPC2 organoid growth in HOME50 devoid of A83-01 ([1]; medium lacking A83-01 (ΔA), FIG. 5) | organoid formation and structure ([1]; effect of EGF concentration, esophageal 3D organoids, FIG. 1) | squamous-cell differentiation gradient ([1]; low EGF concentration, FIG. 1) | growth and formation of neoplastic PDOs [2]
1 | Cc1cccc(-c2nn(C(=S)Nc3ccccc3)cc2-c2ccnc3ccccc23)n1 [A83-01, reference compound] | did not grow | – | – | –
2 | EGF: Recombinant human epidermal growth factor (Peprotech, cat. No. AF-100-15) (NSDSECPLSHDGYCLHDGVCMYIEALDKYACNCVVGYIGERCQYRDLKWWELR; Epidermal growth factor; UniProt P01133 971-1023, looked up) | – | influences organoid formation and structure | more closely recapitulates a normal squamous-cell differentiation gradient | may stimulate growth, if not formation
